Results on two compounds are retold here after patent US5993860A, “NSADI delivery employing a powdered hydrocolloid gum obtainable from higher plants” (Venture Lending, priority 1997, dated 1999).

“And” between values parts separate entries of the source, which are not always exact repeats. Equal entries are not always repeated.

Experiment [1] is described as follows: aspirin-induced gastric ulcer model in rats (ulcer severity grade). Format: in vivo, rat (Sprague-Dawley male). The procedure: Tests were conducted in the aspirin-induced gastric ulcer model. Rats were dosed as indicated below. Five hours after dosing, rats were sacrificed and stomachs were examined for the presence of gastric lesions. A total of 6 treatments were tested. Each treatment was tested in 12 rats. The treatments were prepared immediately prior to use. The aspirin treatments were prepared by suspending 2.00 grams of fine mesh aspirin in 100 ml water (plus 0.1% Tween 80) and then adding the specified amount (i.e. 0, 0.10, 1.00, or 5.00 grams) of Guar gum. The Guar gum 5.0% alone treatment was prepared as above except the aspirin was omitted. All dosing preparations were warmed to about 100° C.; uniformity of suspensions was ensured by constant stirring. Sprague-Dawley male rats, 148 to 190 grams, were individually-housed under standard Vivarium conditions. After arrival, rats were allowed to acclimate in house for a minimum of 5 days before initiation of testing. Rats were fasted (water ad libitum) for 18 hours prior to testing. Treatments 1-6, assigned to rats in random fashion, were administered orally (gavage) at the rate of 10 ml/kilogram (kg). Five hours after treatment, each rat was sacrificed by carbon dioxide inhalation. The abdomen was opened. The stomach was removed, opened along the greater curvature, examined for the presence of lesions, and assigned a severity grade according to the following scale: 0 No lesions 1<5 lesions, at least 1 lesion<2 mm 2<5 lesions, at least 1 lesion>2 mm 3 5 to 10 lesions, all<2 mm 4 5 to 10 lesions, at least 1 lesion>2 mm 5 >10 lesions, all<2 mm 6 >10 lesions, at least 1 lesion>2 mm In order to eliminate bias and reduce subjective variation, all ulcer grading in the study was performed in single-blind fashion by the same well-experienced grader. For each stomach, the severity score was recorded. Data are expressed using the absolute values. […] Statistical significance of differences between means were determined by analysis of variance followed by Neumann-Kuels multiple comparisons test.

Experiment [2] in a line: ketoprofen-induced gastric damage in rats. Format: in vivo, rat (male Wistar). The note with it: ketoprofen 100 mg/kg oral; 5 h after dosing; 15 rats. The procedure: In this example a dose of ketoprofen (100 mg/kg) was administered to rats to induce gastric damage and guar gum was coadministered to determine its effect. Both the ketoprofen and guar gum were administered as an aqueous mixture.
Seventy-five male Wistar rats each approximately 6 weeks of age and ranging in weight from 206 g to 233 g were housed 5 to a cage in suspended polypropylene cages with wire grid floors. The rats had access to tap water and were fed a standard certified laboratory rodent diet (RM1(E)SQC), ad libitam. Lighting in the animal room was controlled to give 12 hours light (0700-1900 hours) and 12 hours dark each day. The room temperature and relative humidity controls were set at 21° C.±3° C. and 50% ±15% respectively.
After an acclimatization period of 3 days following the day of arrival, the animals were randomized into groups according to bodyweight using random numbers tables so that the group mean bodyweights were approximately equal. Including the day of randomization, there were a further 3 days of acclimatization prior to dosing. […]
Five hours after dosing, the rats were sacrificed by carbon dioxide asphyxiation and the stomachs removed. Each stomach was opened along the greater curvature and examined macroscopically for damage in the glandular portion; any damage was subjectively scored using the following system: […]

On to `CC(=O)Oc1ccccc1C(=O)O` [Aspirin, acetylsalicylic acid], for which the “Ulcer Grade, mean” value in experiment [1] (Table 5, severity scale 0-6, 5 h after oral gavage, 10 ml/kg, 12 rats) is on record as 5.8. Further, the “stomachs with ulcer severity scores of 5 or greater” value in experiment [1] (number of rats of 12) was 11 of the 12. Moreover, the “mean ulcer severity (mean ± s.e.m.)” value in experiment [1] (severity scale 0-6, 5 h after dosing) was 5.8 and 5.75±0.18.
Turning to `CC(C(=O)O)c1cccc(C(=O)c2ccccc2)c1` (stereo not shown) [Ketoprofen], in experiment [2], the “Group mean score for gastric damage” value came out at 13.1.
